These results are taken from US11142588B2, “Polypeptides which bind C-X-C chemokine receptor type 4 (CXCR4) and methods of treating or reducing the risk of fibrosis and cancer” (AdAlta Limited, priority 2015, dated 2021).

Several values for one entry are separate records, joined by “and”; a condition that tells them apart may be missing. Equal values may be shown once. Entries after “also recorded” stand apart in the source; their conditions may differ.

Test [1] can be described thus: Laser induced choroidal neovascularisation model. It is filed as in vivo, mouse. The protocol: The laser induced choroidal neovascularisation (CNV) is a well characterised and accepted model of choroidal neovascularisation (Fletcher E L et al. (2011) Prog Mol Biol Transl Sci 100:211-286). It is also a rapid method for determining the efficacy of potential treatments that target angiogenesis and fibrosis. Briefly, up to four laser spots are applied to the posterior eye using a continuous wave photocoagulation laser ([…] diode). The laser energy is high enough to create a break in Bruch's membrane. During the following 7-14 days, growth of blood vessels from the choroid into the retina occurs, and is quantified either immuocytochemically, or using fluorescein angiography.
Mice were treated as below: • Group 1 (n=10): laser both eyes-vehicle in one eye; i-body in the other • Group 2 (n=10): Laser one eye (no i-body); other eye unlasered. • The i-body drug was injected intravitreally in 1 μl volume at a concentration up to 20 mg/ml.
The expression of genes associated with angiogenesis and fibrosis was examined. Total RNA was isolated from the retina and RPE/choroidal samples using commercial spin columns (RNeasy, Qiagen, Valencia Calif.). A PCR gene array was used to assess the expression of 84 genes involved angiogenesis or fibrosis (Qiagen). Briefly, total RNA samples from untreated, laser treated eyes and untreated fellow eyes (n=9 each group, each 25 ng) were pooled within their respective treatment groups (3 independent experiments containing 3 pooled samples), reversed transcribed (RT2 first strand, Qiagen) and then underwent pre-amplification of the cDNA target templates (RT2 pre-AMP, Qiagen). Samples were added to a commercial mastermix (RT2 SYBR green mastermix, Qiagen) and amplified for 40 cycles (ABI 7900HT, Life Technologies, Grand Island N.Y.). Three independent arrays were performed for each treatment group. The data were analysed using delata delta Ct (ΔΔCt), expressed as fold change and regulation assessed using an unpaired t-test.

The test system of the next test is human fibrocytes. The test can be described thus: Binding to human fibrocytes (confocal microscopy). The format is cell-based. As to conditions: CD45 positive cells of PBMCs. The method, then: PBMCs were smeared on a microscope slide and fixed with acetone at 4° C. for 10 minutes. Following three times washing and rehydration with PBS the slides were incubated with mouse antiFLAG 1:100 dilution over night at 4° C. After washing the slides were incubated with Goat anti-mouse Alex Fluor 568 (to detect i-body by binding anti FLAG) at room temperature for 1 hour. The slides were then washed and incubated with Mouse anti-CD-45 FITC labeled antibody over night at 4° C. After further washing the slides were and mounted with ProLong Gold antifade mountant containing DAPI. Images were captured by using Nikon A1 confocal microscope.

Test [2] deals with Human platelet rich plasma. The experiment in a line: SDF-1α induced platelet aggregation. It is filed as cell-based. As to conditions: 10 or 20 ug/mL, 100 nM SDF-1 alpha. The method, then:
Experiments were carried out to examine whether the i-bodies could block platelet aggregation induced by SDF-1α. […] In the presence of negative control i-body 21H5 (or the isotype control for 12G5: mouse IgG2a). SDF-1 induced a robust and reproducible aggregation (the descending black curves, which indicate an increase in light transmission), which matches with what has been previously published.

Test [3] addresses T1, human CXCR4 (CXCR4 positive lipoparticles) (Homo sapiens, UniProt P61073).
T1 construct: purchased Integral Molecular LEV-101B
The test can be described thus: Biacore SPR kinetic binding to immobilised CXCR4 lipoparticles. In general terms: In SPR one partner is held on a chip, and binding of the other changes the refractive index at the surface.

Another test addresses T2, CCR4 (Homo sapiens, UniProt P51679).
T2 sequence (P51679 1-360): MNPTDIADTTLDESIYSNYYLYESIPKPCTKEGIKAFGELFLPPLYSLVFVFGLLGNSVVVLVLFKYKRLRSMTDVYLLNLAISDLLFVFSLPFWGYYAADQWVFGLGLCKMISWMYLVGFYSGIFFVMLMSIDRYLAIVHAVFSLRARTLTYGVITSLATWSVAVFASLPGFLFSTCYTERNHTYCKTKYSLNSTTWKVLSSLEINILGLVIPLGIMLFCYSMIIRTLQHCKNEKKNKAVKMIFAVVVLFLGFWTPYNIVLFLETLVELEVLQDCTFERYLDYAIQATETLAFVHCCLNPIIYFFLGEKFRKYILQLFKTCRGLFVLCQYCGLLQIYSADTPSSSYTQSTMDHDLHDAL
The test can be described thus: PathHunter (DiscoverX) β-arrestin assay, CCR4. It is filed as cell-based. The protocol: (FIG. 9) The PathHunter® β-Arrestin assay (DiscoveRx) was performed according to the manufacturer's protocol. Cells were seeded into white walled, 384-well tissue culture-treated microplates (Corning) and normalized at 5,000 cells (or 10,000 cells for CXCR4) in a total volume of […]. Cell growth was at 37° C. (5% CO2, 95% relative humidity). […] Agonists were then added at the EC80 concentration and incubation was continued at 37° C. for 90 min (or 180 min for CCR1). Assay signal was generated through a single addition of 15 μL (50% v/v) of PathHunter Detection reagent cocktail, followed by 1 h incubation at room temperature. Microplates were read following signal generation with a PerkinElmer Envision instrument for chemiluminescent signal detection of relative light units (RLU).

[4] abbreviates: intravitreal, 1 μl up to 20 mg/ml.
Setting [5] is: CXCR4 expressed on lipoparticles (Table 4).

T1 sequence (P61073 whole entry): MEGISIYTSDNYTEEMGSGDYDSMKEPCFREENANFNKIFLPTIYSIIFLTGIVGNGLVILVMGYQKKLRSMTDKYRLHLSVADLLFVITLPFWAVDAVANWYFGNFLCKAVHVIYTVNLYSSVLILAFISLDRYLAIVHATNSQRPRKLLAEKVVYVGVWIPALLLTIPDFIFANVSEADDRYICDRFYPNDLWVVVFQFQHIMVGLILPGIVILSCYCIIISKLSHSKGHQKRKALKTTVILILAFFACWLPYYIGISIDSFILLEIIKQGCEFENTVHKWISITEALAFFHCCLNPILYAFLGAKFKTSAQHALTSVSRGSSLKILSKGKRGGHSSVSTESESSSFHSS

For the molecule “AM3-114: affinity matured CXCR4 i-body, SEQ ID NO: 40”, the “pro-fibrotic gene expression in treated eyes” value in test [1] (PCR gene array) was “extensive down regulation of pro fibrotic genes”. Moreover, in test [1] (setting [4]), the “contraction of the lasered retinal regions” value is “significant reduction in the contraction” and the “pathological angiogenesis / lesion size” value was “reduction of the lesion size”. For the same molecule, the “binding to human fibrocytes” value in the test with human fibrocytes was “capable of binding to human fibrocytes”. Moreover, in test [2], the “blocking of SDF-1α induced platelet aggregation” value is “most effective; also recorded: most efficient”.

B1: AM3-523: affinity matured CXCR4 i-body, SEQ ID NO: 56 (protein)
chain: LQVDIVPSQGEISVGESKFFLCQVAGSGSHMRISWFSPNGEKLTPNQQRISVVWNDDSSSTLTIYNANIDDAGIYKCVVWVGGYRHRALVLGEATVNVKIFQ
modifications: protein sequence encoding AM3-523
Take B1: in test [3] (setting [5]), the Kd (commonly a measure of binding affinity in units of concentration) was 9.47 nM and 8.53 nM; the “dissociation rate constant (kd)” value is 9150 M⁻¹ s⁻¹ and 8610 M⁻¹ s⁻¹. Further, the “dissociation rate constant (kd)” value in test [3] (off-rate, CXCR4 expressed on lipoparticles (Table 3)) is on record as 0.00998. Also, the CCR4 activity with CCR4 is listed as −2%. Moreover, in test [2], the “blocking of SDF-1α induced platelet aggregation” value is “blocked aggregation to the same extent as the MAb12G5”.
